Test results as given in PubChem BioAssay (NCI).
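Grown in 96-well plates, cells were treated for 48 hours with each compound at five concentrations. Insufficient inhibition: endpoint recorded as highest concentration tested. TGI marks complete inhibition of growth.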

Columns and labels:
Assay in all cases: NCI anticancer screen, dose series, 48 h
OVCAR-5 ovarian = tested on: OVCAR-5 ovarian
DMS 273 small cell lung = tested on: DMS 273 small cell lung
ACHN renal = tested on: ACHN renal
KM20L2 colon = tested on: KM20L2 colon
A549 NSCLC = tested on: A549 NSCLC
OVCAR-3 ovarian = tested on: OVCAR-3 ovarian
IGROV1 ovarian = tested on: IGROV1 ovarian
NCI-H23 lung = tested on: NCI-H23 lung
CAKI-1 renal = tested on: CAKI-1 renal
SN12C renal = tested on: SN12C renal
SF-539 CNS = tested on: SF-539 CNS
LXFL 529 NSCLC = tested on: LXFL 529 NSCLC
SF-268 CNS = tested on: SF-268 CNS
CCRF-CEM leukemia = tested on: CCRF-CEM leukemia
K-562 leukemia = tested on: K-562 leukemia
SNB-19 CNS = tested on: SNB-19 CNS
HOP-92 NSCLC = tested on: HOP-92 NSCLC
XF 498 CNS = tested on: XF 498 CNS
UO-31 renal = tested on: UO-31 renal
SK-MEL-28 melanoma = tested on: SK-MEL-28 melanoma
EKVX NSCLC = tested on: EKVX NSCLC
RPMI-8226 leukemia = tested on: RPMI-8226 leukemia
SNB-78 CNS = tested on: SNB-78 CNS
HCT-116 colon = tested on: HCT-116 colon
NCI-H226 lung = tested on: NCI-H226 lung
SK-MEL-5 melanoma = tested on: SK-MEL-5 melanoma
HCT-15 colon = tested on: HCT-15 colon
RXF 393 renal = tested on: RXF 393 renal
COLO 205 colon = tested on: COLO 205 colon
OVCAR-4 ovarian = tested on: OVCAR-4 ovarian
KM12 colon = tested on: KM12 colon
OVCAR-8 ovarian = tested on: OVCAR-8 ovarian
MALME-3M melanoma = tested on: MALME-3M melanoma
SW-620 colon = tested on: SW-620 colon
TK-10 renal = tested on: TK-10 renal
UACC-257 melanoma = tested on: UACC-257 melanoma
A498 renal = tested on: A498 renal
SNB-75 CNS = tested on: SNB-75 CNS
LOX IMVI melanoma = tested on: LOX IMVI melanoma
SK-MEL-2 melanoma = tested on: SK-MEL-2 melanoma
786-0 renal = tested on: 786-0 renal
HCC-2998 colon = tested on: HCC-2998 colon
RXF-631 renal = tested on: RXF-631 renal
DLD-1 colon = tested on: DLD-1 colon
M19-MEL melanoma = tested on: M19-MEL melanoma
U251 CNS = tested on: U251 CNS
M14 melanoma = tested on: M14 melanoma
SF-295 CNS = tested on: SF-295 CNS
UACC-62 melanoma = tested on: UACC-62 melanoma
HT29 colon = tested on: HT29 colon
NCI-H460 lung = tested on: NCI-H460 lung
MOLT-4 leukemia = tested on: MOLT-4 leukemia
HOP-62 NSCLC = tested on: HOP-62 NSCLC
HL-60(TB) leukemia = tested on: HL-60(TB) leukemia
SK-OV-3 ovarian = tested on: SK-OV-3 ovarian
DMS 114 small cell lung = tested on: DMS 114 small cell lung
SR leukemia = tested on: SR leukemia
NCI-H522 lung = tested on: NCI-H522 lung

Cc1ccc(N=C2N=C(N3CC(C)OC(C)C3)c3ccccc32)cc1 (stereo unspecified)
TGI (OVCAR-5 ovarian): > 100 µM | TGI (DMS 273 small cell lung): 77.1 µM | TGI (ACHN renal): > 100 µM | TGI (KM20L2 colon): > 100 µM | TGI (A549 NSCLC): > 100 µM | TGI (OVCAR-3 ovarian): 73.4 µM | TGI (IGROV1 ovarian): 88.8 µM | TGI (NCI-H23 lung): 78.8 µM | TGI (CAKI-1 renal): 51 µM | TGI (SN12C renal): > 100 µM | TGI (SF-539 CNS): 38.1 µM | TGI (LXFL 529 NSCLC): 57.6 µM | TGI (SF-268 CNS): > 100 µM | TGI (CCRF-CEM leukemia): 66.8 µM | TGI (K-562 leukemia): > 100 µM | TGI (SNB-19 CNS): > 100 µM | TGI (HOP-92 NSCLC): 26.5 µM | TGI (XF 498 CNS): 64.5 µM | TGI (UO-31 renal): 54.2 µM | TGI (SK-MEL-28 melanoma): 87.2 µM | TGI (EKVX NSCLC): > 100 µM | TGI (RPMI-8226 leukemia): 87.1 µM | TGI (SNB-78 CNS): > 100 µM | TGI (HCT-116 colon): 48.8 µM | TGI (NCI-H226 lung): > 100 µM | TGI (SK-MEL-5 melanoma): 48.5 µM | TGI (HCT-15 colon): > 100 µM | TGI (RXF 393 renal): 34.4 µM | TGI (COLO 205 colon): > 100 µM | TGI (OVCAR-4 ovarian): 52.1 µM | TGI (KM12 colon): 62.5 µM | TGI (OVCAR-8 ovarian): > 100 µM | TGI (MALME-3M melanoma): 99.4 µM | TGI (SW-620 colon): > 100 µM | TGI (TK-10 renal): > 100 µM | TGI (UACC-257 melanoma): 74.6 µM | TGI (A498 renal): 90.1 µM | TGI (SNB-75 CNS): 88.5 µM | TGI (LOX IMVI melanoma): > 100 µM | TGI (SK-MEL-2 melanoma): 70.4 µM | TGI (786-0 renal): > 100 µM | TGI (HCC-2998 colon): 79.5 µM | TGI (RXF-631 renal): > 100 µM | TGI (DLD-1 colon): > 100 µM | TGI (M19-MEL melanoma): > 100 µM | TGI (U251 CNS): > 100 µM | TGI (M14 melanoma): 56.5 µM | TGI (SF-295 CNS): > 100 µM | TGI (UACC-62 melanoma): > 100 µM | TGI (HT29 colon): 65 µM | TGI (NCI-H460 lung): > 100 µM | TGI (MOLT-4 leukemia): 47.8 µM | TGI (HOP-62 NSCLC): > 100 µM

CC1(C)C(=O)C(C)(C)C1=NNC(N)=S
TGI (OVCAR-5 ovarian): > 100 µM | TGI (DMS 273 small cell lung): > 100 µM | TGI (ACHN renal): > 100 µM | TGI (KM20L2 colon): > 100 µM | TGI (HL-60(TB) leukemia): > 100 µM | TGI (A549 NSCLC): > 100 µM | TGI (OVCAR-3 ovarian): > 100 µM | TGI (IGROV1 ovarian): > 100 µM | TGI (NCI-H23 lung): > 100 µM | TGI (CAKI-1 renal): > 100 µM | TGI (SN12C renal): > 100 µM | TGI (SF-539 CNS): > 100 µM | TGI (LXFL 529 NSCLC): > 100 µM | TGI (SF-268 CNS): > 100 µM | TGI (SK-OV-3 ovarian): > 100 µM | TGI (K-562 leukemia): > 100 µM | TGI (SNB-19 CNS): > 100 µM | TGI (HOP-92 NSCLC): > 100 µM | TGI (XF 498 CNS): > 100 µM | TGI (UO-31 renal): > 100 µM | TGI (SK-MEL-28 melanoma): > 100 µM | TGI (RPMI-8226 leukemia): > 100 µM | TGI (SNB-78 CNS): > 100 µM | TGI (HCT-116 colon): > 100 µM | TGI (NCI-H226 lung): > 100 µM | TGI (SK-MEL-5 melanoma): > 100 µM | TGI (HCT-15 colon): > 100 µM | TGI (RXF 393 renal): > 100 µM | TGI (COLO 205 colon): > 100 µM | TGI (OVCAR-4 ovarian): > 100 µM | TGI (KM12 colon): > 100 µM | TGI (OVCAR-8 ovarian): > 100 µM | TGI (MALME-3M melanoma): > 100 µM | TGI (SW-620 colon): > 100 µM | TGI (TK-10 renal): > 100 µM | TGI (DMS 114 small cell lung): > 100 µM | TGI (UACC-257 melanoma): > 100 µM | TGI (SNB-75 CNS): > 100 µM | TGI (LOX IMVI melanoma): > 100 µM | TGI (786-0 renal): > 100 µM | TGI (HCC-2998 colon): > 100 µM | TGI (RXF-631 renal): > 100 µM | TGI (SR leukemia): > 100 µM | TGI (NCI-H522 lung): > 100 µM | TGI (M19-MEL melanoma): > 100 µM | TGI (U251 CNS): > 100 µM | TGI (M14 melanoma): > 100 µM | TGI (SF-295 CNS): > 100 µM | TGI (UACC-62 melanoma): > 100 µM | TGI (HT29 colon): > 100 µM | TGI (NCI-H460 lung): > 100 µM | TGI (MOLT-4 leukemia): > 100 µM | TGI (HOP-62 NSCLC): > 100 µM
